Earlier results on one compound are cited in patent EP0502042B1, “PHARMACEUTICAL COMPOSITIONS” (PHARMACIA S.p.A., priority 1989, dated 1991).

The test system of the series is mice.

As to `CN1C(=O)C(O)N=C(c2ccccc2)c2cc(Cl)ccc21` (stereo not shown) [Temazepam], the “oral LD 50” value is given as around 1000 mg/kg.
